In PMC4291223, “Inhibitors of CLK Protein Kinases Suppress Cell Growth and Induce Apoptosis by Modulating Pre-mRNA Splicing” (PLoS ONE, 2015):

Experiments:
SRPK2 = biological target: T1, SRPK2 (Homo sapiens, UniProt P78362); assay: In vitro kinase assay (ADP-Glo), SRPK2; type: biochemical; conditions: 5 µM ATP
T1 construct: purchased Millipore
Experimental: The ATP concentration for each assay was adjusted to the Km for each kinase. Kinase assays for SRPK1–3 and CLK1 were performed using the ADP-Glo™ assay (Promega, Madison, WI). The kinase buffer contained 25 mM HEPES (pH 7.5), 10 mM magnesium acetate, 1 mM DTT, 0.01% BSA, and 0.01% Tween-20. The reaction mixtures contained 50 ng/mL SRPK1, 100 ng/mL SRPK2 or SRPK3, or 300 ng/mL CLK1 and 3 μM substrate peptide [GRSRSRSRSRSRSRSR] (Thermo Scientific). After incubating the enzyme, peptide, and compounds for 10 min, kinase reactions were initiated by adding ATP to a final concentration of 5 µM, followed by incubation for 30 min (15 min for SRPK1). The kinase reactions were terminated by adding ADP-Glo™ reagent (Promega). ADP was detected using a kinase detection reagent (Promega). The kinase activity of CLK2 was measured using the LANCE® Ultra assay (Perkin-Elmer, Waltham, MA) with ADP-Glo assay buffer. The reaction mixtures contained 100 ng/mL CLK2 and 50 nM ULight™-myelin basic protein (MBP) peptide (Perkin-Elmer). After incubating the enzyme, peptide, and compounds for 5 min, kinase reactions were initiated by adding ATP to a final concentration of 20 μM, followed by incubation for 30 min. The enzyme reactions were terminated by adding 30 mM EDTA, and phosphorylated ULight-MBP peptides were detected using a europium-labeled anti-phospho-MBP antibody diluted with detection buffer (Perkin-Elmer). The plates were read using an EnVision 2102 multilabel reader (Perkin-Elmer). We defined the absorbance of the reaction without enzyme as 100% inhibitory activity and that of the complete reaction mixture as 0% inhibitory activity. The IC50 values were estimated using the “Sigmoidal dose-response (variable slope)” equation in GraphPad Prism 5 software (GraphPad Software, San Diego, CA), with the maximum and minimum of the curve constrained to 100 and 0, respectively.

HCT-116 cells = assay: Cell viability assay, HCT-116; type: cell-based; conditions: Homo sapiens; HCT-116 colorectal cancer
NCI-H23 cells = assay: Cell viability assay, NCI-H23; type: cell-based; conditions: Homo sapiens; NCI-H23 non-small cell lung cancer
[1] = test system: S6K pre-mRNA splicing in MDA-MB-468 cells; assay: S6K pre-mRNA splicing alteration (quantitative RT-PCR), MDA-MB-468; type: cell-based, human; conditions: for Rc0.1: MDA-MB-468, concentration at which ratio of copy number of S6K exons 6–8 to S6K exons 6–7 is 0.1; for concentration at which expression level of the alternatively spliced S6K mRNAs was highest: MDA-MB-468, 6 h, S6K exons 6–8 (exon 7 skipped)
From the text: (§1) To examine whether inhibition of a particular CLK and/or SRPK contributed to the alternative splicing of S6K pre-mRNA, we used an additional series of compounds with the same scaffold as Cpd-1, Cpd-2, and Cpd-3, but different selectivity. First, we examined the correlation between the enzymatic activity and the level of splicing alterations of S6K pre-mRNA for the individual compounds. We used the exon 7-skipped type of S6K variant to calibrate Rc0.1 values, i.e., the concentrations that induced 10% of the copy number of an alternative isoform compared with that of the canonical isoform. The inhibition of CLK1 and CLK2 activities was correlated with the splicing alteration activities (Rc0.1) (R^2 = 0.3353 and 0.4255, respectively). In contrast, there was no correlation between the activities of SRPKs and the Rc0.1 values (R^2 < 0.0468) (Fig. 3A). Next, we compared the levels of splicing alteration and growth inhibition of the compounds. […] Similar correlations between Rc0.1 and GI50 values were also obtained in seven different cancer cell lines after treatment with Cpd-2 or Cpd-3 (Table 2).
(§2) Total RNA was extracted using an RNeasy Miniprep Kit (Qiagen, Valencia, CA) in accordance with the manufacturer’s instructions. Reverse transcription was performed using a TaqMan Reverse Transcription Reagents Kit (Applied Biosystems, Carlsbad, CA). The PCR conditions were as follows: one cycle of 5 min at 95°C; 35 cycles of 30 s at 94°C, 30 s at 60°C, and 30 s at 72°C; and one cycle of 10 min at 72°C. The PCR products were separated in 2% agarose gels. Real-time PCR was performed using a TaqMan MGB probe (Applied Biosystems), and the amount of FAM fluorescence was measured as a function of the PCR cycle number (CT) using an ABI 7900 Real-time PCR System (Applied Biosystems). The expression level of each mRNA was normalized by that of GAPDH mRNA.

[2] = test system: S6K pre-mRNA splicing in A549 cells; assay: S6K pre-mRNA splicing alteration (quantitative RT-PCR), A549; type: cell-based, human; conditions: ratio of S6K exons 6–8 to exons 6–7 is 0.1
From the text: as §1, §2

[3] = test system: S6K pre-mRNA splicing in HCT-116 cells; assay: S6K pre-mRNA splicing alteration (quantitative RT-PCR), HCT-116; type: cell-based, human; conditions: ratio of S6K exons 6–8 to exons 6–7 is 0.1
From the text: as §1, §2

[4] = test system: S6K pre-mRNA splicing in SW620 cells; assay: S6K pre-mRNA splicing alteration (quantitative RT-PCR), SW620; type: cell-based, human; conditions: ratio of S6K exons 6–8 to exons 6–7 is 0.1
From the text: as §1, §2

CLK2 = biological target: T2, CLK2 (Homo sapiens, UniProt P49760); assay: Kinase panel assay (Z'-LYTE, SelectScreen), CLK2 among 28 kinases; type: biochemical; conditions: 100 and 1000 nM
T2 construct: purchased Life Technologies
T2 sequence (P49760 whole entry): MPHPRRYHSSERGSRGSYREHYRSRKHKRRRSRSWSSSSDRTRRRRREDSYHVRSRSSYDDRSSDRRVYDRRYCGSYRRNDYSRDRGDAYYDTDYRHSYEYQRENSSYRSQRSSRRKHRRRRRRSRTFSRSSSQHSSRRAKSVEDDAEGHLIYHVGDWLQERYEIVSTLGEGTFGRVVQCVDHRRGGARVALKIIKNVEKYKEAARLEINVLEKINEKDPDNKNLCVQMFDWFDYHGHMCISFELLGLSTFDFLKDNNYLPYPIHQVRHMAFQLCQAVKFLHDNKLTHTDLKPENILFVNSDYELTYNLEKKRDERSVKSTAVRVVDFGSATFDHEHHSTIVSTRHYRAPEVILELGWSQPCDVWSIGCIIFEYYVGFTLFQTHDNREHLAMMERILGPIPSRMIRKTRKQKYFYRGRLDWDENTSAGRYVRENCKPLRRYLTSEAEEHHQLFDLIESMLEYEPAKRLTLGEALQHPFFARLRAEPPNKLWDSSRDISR
Experimental: Kinase panel assays were performed using the FRET-based Z’- LYTE enzymatic kinase assay system (Life Technologies, Carlsbad, CA), which was carried out using the SelectScreen Kinase Profiling Service (Life Technologies). The standard reaction contained 2 μM peptide substrate, 100 μM ATP, 50 mM HEPES (pH 7.5), 0.01% Brij-35, 10 mM MgCl2, 1 mM EGTA, and each kinase. Cpd-1, Cpd-2, and Cpd-3 at two point concentration (100 and 1000 nM) with duplicate data points (n = 2) were assayed following the detailed procedures outlined in the SelectScreen. The full assay protocol and conditions can be obtained at www.lifetechnologies.com. Percent inhibition represents a ratio of phosphorylated product formed in the presence of the compound compared with phosphorylated product formed in reactions containing 1% DMSO. Inhibition data indicates the mean value of kinase inhibition from duplicate data.

[5] = test system: nuclear speckles in MDA-MB-468 cells; assay: Immunofluorescence of nuclear speckles (anti-SC35); type: cell-based, human; conditions: MDA-MB-468, 6 h, anti-SC35 antibody
Experimental: MDA-MB-468 cells were fixed with 4% paraformaldehyde for 30 min at room temperature, washed with PBS, blocked with 5% BSA in PBS, incubated with an anti-SC35 antibody (Abcam, Cambridge, UK) for 1 h at room temperature, and incubated with a secondary antibody for 1 h. The cells were mounted and counterstained with DAPI (Vector Laboratories, Burlingame, CA) and detected using fluorescence microscopy.

T1 sequence (P78362 whole entry): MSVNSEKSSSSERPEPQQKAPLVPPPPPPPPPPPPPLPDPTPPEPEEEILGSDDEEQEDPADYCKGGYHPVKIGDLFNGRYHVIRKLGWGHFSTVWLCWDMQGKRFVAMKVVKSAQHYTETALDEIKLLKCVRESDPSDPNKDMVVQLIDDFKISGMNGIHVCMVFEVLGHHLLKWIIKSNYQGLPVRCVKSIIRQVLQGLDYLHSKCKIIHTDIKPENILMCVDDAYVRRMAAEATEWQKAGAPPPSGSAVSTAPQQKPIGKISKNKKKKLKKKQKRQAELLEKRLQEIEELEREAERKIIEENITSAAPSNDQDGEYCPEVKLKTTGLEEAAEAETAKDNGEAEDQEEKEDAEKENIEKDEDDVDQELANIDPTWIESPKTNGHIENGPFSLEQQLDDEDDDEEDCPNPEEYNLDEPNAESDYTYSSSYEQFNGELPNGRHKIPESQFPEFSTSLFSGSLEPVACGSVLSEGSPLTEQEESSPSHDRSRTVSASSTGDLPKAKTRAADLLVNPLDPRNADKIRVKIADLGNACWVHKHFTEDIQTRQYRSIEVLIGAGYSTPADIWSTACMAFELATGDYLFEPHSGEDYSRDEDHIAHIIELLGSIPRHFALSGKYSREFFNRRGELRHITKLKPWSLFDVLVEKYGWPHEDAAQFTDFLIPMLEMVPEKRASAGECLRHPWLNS

Compound | IC50 (SRPK2) | GI50 (HCT-116 cells) | GI50 (NCI-H23 cells) | Rc0.1 [1] | Rc0.1 [2] | Rc0.1 [3] | Rc0.1 [4] | inhibitory activity against CLK2 among the 28 critical oncology-related kinases (CLK2) | effect on nuclear speckles [5] | concentration at which expression level of the alternatively spliced S6K mRNAs was highest [1]
CC(C)(CCc1nnn[nH]1)c1ccc(C(=O)Nc2cn3cc(C(F)(F)F)ccc3n2)cc1 [Cpd-1, 4-(2-methyl-4-(1H-tetrazol-5-yl)butan-2-yl)-N-(6-(trifluoromethyl)imidazo[1,2-a]pyridin-2-yl)benzamide] | 75 nM | 70200 nM | 32000 nM | 8.6 µM | >10 µM | >10 µM | >10 µM | strongest inhibitory activity against CLK2 | induced enlargement of nuclear speckles | –
CC(C)(C)c1ccc(C(=O)Nc2cn3cc(-c4cn[nH]c4)ccc3n2)cn1 [Cpd-2, 6-tert-butyl-N-(6-(1H-pyrazol-4-yl)imidazo[1,2-a]pyridin-2-yl)nicotinamide] | 310 nM | 2200 nM | 1400 nM | 0.3 µM | 0.3 µM | 1.2 µM | 1.2 µM | strongest inhibitory activity against CLK2 | induced enlargement of nuclear speckles | 1.1 to 3.3 µM
CC(C)(CO)c1ccc(C(=O)Nc2cn3cc(-c4cn[nH]c4)ccc3n2)cc1 [Cpd-3, 4-(1-hydroxy-2-methylpropan-2-yl)-N-(6-(1H-pyrazol-4-yl)imidazo[1,2-a]pyridin-2-yl)benzamide] | 260 nM | 2500 nM | 2200 nM | 0.5 µM | 1.2 µM | 1.9 µM | 1.4 µM | strongest inhibitory activity against CLK2 | induced enlargement of nuclear speckles | 1.1 to 3.3 µM
